From the supplement of paper PMC10307832 come the findings set out here.

Compound in this assay: CN(NC(=O)CC(=O)NN(C)C(=S)c1ccccc1)C(=S)c1ccccc1 [Elesclomol] + Cc1nc(NC(=O)N2CCC[C@H]2C(N)=O)sc1-c1ccnc(C(C)(C)C(F)(F)F)c1 [Alpelisib] (partner 2 µM)
As to the kind of experiment: relative viability (nuclei count vs DMSO), 5 days (fraction); higher = more cells survive. Summed up: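 Lung cancer cell lines, seeded in 1536-well plates, were treated the following day by pin tool with a single drug or with five library-drug doses (not always all listed) in √10 steps on top of a fixed anchor-drug dose. Cells were fixed and nuclei stained in one step after 5 days, and nuclei were counted. Relative viability is the nuclei count for treated wells divided by that for vehicle wells, reported as medians of duplicate plates.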

Turning to NCI-H838, the relative viability (first compound 0.003162 µM) worked out at 1.13, the relative viability (first compound 0.01 µM) came out at 0.892, the relative viability (first compound 0.03162 µM) came out at 0.967 and the relative viability (first compound 0.1 µM) amounted to 0.706.
The matching figures for NCI-H3122: 0.706, 0.759, 0.758 and 0.159.
Consider SK-MES-1, for which the relative viability reads like this: (first compound 0.003162 µM) 0.854; (first compound 0.01 µM) 0.502; (first compound 0.03162 µM) 0.679; (first compound 0.1 µM) 0.279.
The matching figures for NCI-H1944: 0.887, 0.736, 0.881 and 0.825.
On the same counts, the results for LK-2 are 0.843, 0.254, 0.137 and 0.107.
On the same counts, the results for PC-3 [JPC-3] are 0.981, 0.958, 1.04 and 0.778.
As for COR-L23, the relative viability amounted to 0.694 (first compound 0.003162 µM), 0.366 (first compound 0.01 µM), 0.268 (first compound 0.03162 µM) and 0.0856 (first compound 0.1 µM).
On the same counts, the results for NCI-H1355 are 0.832, 0.636, 0.466 and 0.16.
The matching figures for NCI-H460: 0.434, 0.0761, 0.0128 and 0.0117.
For NCI-H1993, the relative viability was determined as 0.755 (first compound 0.003162 µM), 0.662 (first compound 0.01 µM), 0.666 (first compound 0.03162 µM) and 0.52 (first compound 0.1 µM).
On the same counts, the results for HCC-15 are 0.931, 0.645, 0.559 and 0.236.
As for NCI-H23, the relative viability reads like this: (first compound 0.003162 µM) 0.662; (first compound 0.03162 µM) 0.491; (first compound 0.1 µM) 0.122.
For the cell line NCI-H1395, the relative viability runs as follows: (first compound 0.003162 µM) 0.999; (first compound 0.01 µM) 0.571; (first compound 0.03162 µM) 0.252; (first compound 0.1 µM) 0.259.
On the same counts, the results for NCI-H1666 are 0.765, 0.232, 0.277 and 0.116.
On the same counts, the results for NCI-H2405 are 0.783, 0.312, 0.223 and 0.224.
The matching figures for NCI-H2009: 1.21, 0.885, 0.458 and 0.14.
As to HCC-78, the relative viability runs as follows: (first compound 0.003162 µM) 0.27; (first compound 0.01 µM) 0.354; (first compound 0.03162 µM) 0.325; (first compound 0.1 µM) 0.307.
The matching figures for NCI-H2170: 0.808, 0.722, 0.708 and 0.403.
On the same counts, the results for NCI-H1793 are 0.759, 0.654, 0.768 and 0.164.
Turning to HCC-366, the relative viability (first compound 0.003162 µM) turned out to be 0.437, the relative viability (first compound 0.01 µM) stood at 0.491, the relative viability (first compound 0.03162 µM) stood at 0.359 and the relative viability (first compound 0.1 µM) came out at 0.0118.
The matching figures for NCI-H1651: 0.762, 0.435, 0.235 and 0.0895.
On the same counts, the results for LC-2-ad are 0.85, 0.495, 0.111 and 0.116.
On the same counts, the results for HCC-827 are 0.98, 1.01, 0.975 and 0.657.
As for SK-LU-1, the relative viability reads like this: (first compound 0.003162 µM) 0.987; (first compound 0.01 µM) 0.674; (first compound 0.03162 µM) 0.294; (first compound 0.1 µM) 0.1.
On the same counts, the results for ABC-1 are 0.292, 0.313, 0.23 and 0.256.
The matching figures for NCI-H1703: 0.225, 0.135, 0.0986 and 0.0874.
With COR-L 105, the relative viability is, setting by setting: (first compound 0.003162 µM) 1.11; (first compound 0.01 µM) 0.712; (first compound 0.03162 µM) 0.409; (first compound 0.1 µM) 0.256.
Turning to LOU-NH91, the relative viability is, setting by setting: (first compound 0.003162 µM) 0.717; (first compound 0.01 µM) 0.643; (first compound 0.03162 µM) 0.513; (first compound 0.1 µM) 0.498.
On the same counts, the results for NCI-H661 are 0.619, 0.387, 0.2 and 0.234.
For LU99A, the relative viability is, setting by setting: (first compound 0.003162 µM) 0.479; (first compound 0.03162 µM) 0.538; (first compound 0.1 µM) 0.095.
On to SW 1573, for which the relative viability runs as follows: (first compound 0.003162 µM) 0.728; (first compound 0.01 µM) 0.211; (first compound 0.03162 µM) 0.143; (first compound 0.1 µM) 0.0815.
On the same counts, the results for HOP-62 are 1.05, 0.712, 0.797 and 0.113.
The matching figures for UMC-11: 0.949, 0.931, 0.488 and 0.363.
Turning to LCLC-103H, the relative viability turned out to be 1.17 (first compound 0.003162 µM), 0.883 (first compound 0.01 µM), 1.02 (first compound 0.03162 µM) and 0.955 (first compound 0.1 µM).
On the same counts, the results for NCI-H1734 are 0.722, 0.588, 0.625 and 0.131.
